PMC4939023, “Efficacy of delayed treatment of China-made Peramivir with repeated intravenous injections in a mouse influenza model: from clinical experience to basal experiment” (BMC Infectious Diseases, 2016)
Where “and” joins values, the source holds several entries; their conditions need not be identical. Equal entries are not always repeated. Entries after “also recorded” stand apart in the source; their conditions may differ. Where two headings read alike, the source gives them in different places.

What was measured:
[1] = system: influenza A/H1N1; conditions: cited from earlier work; for weight loss and mortality: single intramuscular injection 10 mg/kg, mice infected with influenza A/H1N1
[2] = system: Influenza A H1N1pdm2009 (A/GZ/GIRD07/09, H1N1); design: species or system BALB/C mice; conditions: mouse, in vivo
[3] = system: H7N9; design: species or system human patients; conditions: human, in vivo
[4] = system: Influenza A H1N1pdm2009 (A/GZ/GIRD07/09, H1N1); design: species or system BALB/C mice; conditions: mouse, in vivo; remark: listed apart in the source
[5] = system: influenza A (H1N1) 2009 virus; conditions: cited from earlier work
[6] = cited from earlier work
[7] = oral administration; no reference given; cited from earlier work
[8] = mouse, in vivo
[9] = system: influenza virus; conditions: repeated intravenous injections for 5 days, patients at high risk of complications; cited from earlier work
[10] = system: influenza; conditions: cited from earlier work
[11] = system: Influenza A H1N1pdm2009 (A/GZ/GIRD07/09, H1N1); design: species or system BALB/C mice; conditions: mouse, in vivo; remark: listed apart in the source
[12] = system: influenza; conditions: given as late as 60 h after infection; cited from earlier work
[13] = system: Influenza B (B/Guangzhou/GIRD08/09); design: species or system BALB/C mice; conditions: mouse, in vivo

CCOC(=O)C1=C[C@@H](OC(CC)CC)[C@H](NC(C)=O)[C@@H](N)C1 [Oseltamivir]
weight loss and mortality [1]: no efficacy
efficacy of delayed treatment (survival) [2]: no efficacy
Clinical outcome [3]: Survival; also recorded: Death
lung virus titer vs virus group [4]: reduced

CCC(CC)[C@H](NC(C)=O)[C@@H]1[C@H](O)[C@@H](C(=O)O)C[C@H]1N=C(N)N [Peramivir]
survival rates and viral titers in the lungs ([5]; 40 mg/kg·d i.v. QD x 20 days starting at 24, 48 or 72 h p.i.): increased survival rates and reduced viral titers in the lungs
drug-related toxicity ([5]; repeated intravenous injections 40 mg/kg·d for 20 days): no obvious signs of drug-related toxicity
prevention of death ([1]; single intramuscular dose 10 mg/kg administered at 24 or 48 h p.i.): prevented death
weight loss and mortality [1]: significantly reduces weight loss and mortality
efficacy of delayed treatment (survival rate) vs virus group [2]: efficacy was observed
efficacy of delayed treatment (survival) [2]: no efficacy
mean number of days to death [2]: > 15 days
survival rate [2]: 100% and 80% and 70%
survival rate vs virus group [2]: enhanced
difference in weight loss suppression compared with the virus group ([2]; iv, 60 mg/kg): about 9%
weight loss suppression compared with the virus group ([2]; iv, 60 mg/kg): significant weight loss suppression
toxicity or side effects ([6]; 1000 mg/kg·d administered for 5 days): no signs of toxicity or side effects
toxicity or side effects ([6]; doses as high as 3000 mg/kg·d administered as a single dose): no signs of toxicity or side effects
oral bioavailability [7]: ≤ 3%
concentration in the blood of virus-infected mice compared with normal mice [8]: no significant differences
clinical effect [9]: beneficial effects
safety [9]: no major safety issues
Clinical outcome [3]: Survival; also recorded: Death
treatment efficacy in H7N9 patients [3]: a degree of treatment efficacy; also recorded: some treatment efficacy
in vitro activity relative to Oseltamivir carboxylate and Zanamivir [10]: comparable to, or better than
lung index vs virus group [11]: improvement
prevention of death [12]: able to prevent death
lung virus titer vs virus group [4]: reduced lung virus titers
lung index vs virus group [13]: improved

CC(=O)N[C@H]1[C@H]([C@H](O)[C@H](O)CO)OC(C(=O)O)=C[C@@H]1N=C(N)N [Zanamivir]
Clinical outcome [3]: Death; also recorded: Survival
